Test results taken from patent US20060019241A1, “Na+ and CI-coupled transport system for endogenous opioid peptides” (priority 2004, published 2006).
“Also recorded” adds a separate entry of the source.

Columns and labels:
Format in all cases: cell-based, human
[1] = tested on: enkephalin/endorphin transport system in SK—N—SH cells; assay: [^3H]deltorphin II uptake in SK—N—SH cells, effect of peptides and amino acids; settings: for Deltorphin II uptake / effect on [^3H]deltorphin II uptake (in words): [^3H]deltorphin II 25 nM, NaCl, 30 minutes; for Deltorphin II uptake: compound 1 mM; for Ki: read-out: Ki for inhibition of deltorphin II uptake, dose-response studies; for effect on [^3H]deltorphin II uptake (in words): test substance 1 mM
Experimental: (§1) Uptake measurements in control ARPE-19 cells and Tat-ARPE-19 cells. Control ARPE-19 cells and Tat-ARPE-19 cells were maintained in 75-cm^2 culture flasks in Dulbecco's modified Eagle's medium/F12 medium (1:1, volume/volume (v/v)) in the presence of fetal bovine serum (10%) and G418 (100 μg/ml). For uptake measurements, cells were released by trypsin treatment and seeded in 24-well culture plates at an initial density of 0.1×10^6 cells/well. The culture medium was replaced with fresh medium on the second day following the initial seeding and uptake measurements were made on the third day. […] After incubation at 37° C. for a desired time, uptake was terminated by the removal of the medium and washing of the cells with ice-cold uptake buffer. The cells were then dissolved in 1% SDS in 0.2 M NaOH and used for measurement of radioactivity. The uptake buffer in most experiments was 25 mM Hepes/Tris (pH 7.5), containing 140 mM NaCl, 5.4 mM KCl, 1.8 mM CaCl2, 0.8 mM MgSO4 and 5 mM glucose.
Since enkephalins and endorphins are relevant to pain perception and to further provide evidence in support of a role for the transport system in opioidergic neurotransmission, the human neuronal cell line SK—N—SH was tested for expression of the transport system. […] Unless otherwise specified, procedures are as detailed in Example 1.
The concentration of enkephalins and dynorphins was 1 mM.
Finally, the relative affinity of various enkephalins and dynorphins for the transport system in SK—N—SH cells was determined.
To the further characterize the opioid transport of the present invention, various specific peptides that act as positive modulators of the enkephalin/endorphin transport system in the human neuronal cell line SK—N—SH were identified. Unless otherwise specified, procedures are as detailed in Example 1. […] Uptake was measured in the presence of NaCl for 30 minutes. The concentration of the dipeptides was 1 mM.
Uptake was measured in the presence of NaCl for 30 minutes. The concentration of the tripeptides was 1 mM.
Unless otherwise specified, procedures are as described in more detail in Example 1.
The dose-response relationship for the inhibition of the enkephalin/endorphin transport system by L-Lysine and its methyl and ethyl esters is shown in FIG. 15.

[2] = tested on: deltorphin II transport system in control ARPE-19 cells; assay: Inhibition of [^3H]deltorphin II uptake in control ARPE-19 cells; settings: [^3H]deltorphin II 50 nM, 30 minutes, NaCl, peptide/antagonist 1 mM; for [^3H] Deltorphin II uptake: control ARPE-19 cells (pcDNA vector alone); for [^3H] Deltorphin II uptake (%) of control: control ARPE-19 cells, control = 100
From the text: (§2) Stable transfection of ARPE-19 cells with pcDNA-Tat cDNA. The pGEM2-Tat cDNA construct contained as the insert a 295 basepair (bp) fragment encoding the first exon of HIV-1 Tat gene joined to a 145 bp pET3A transcription terminator. The entire insert (440 bp) was removed from the construct by digestion with PstI and EcoRI and ligated into the multiple cloning region of pcDNA3.1 (−) vector at PstI/EcoRI site so that the insert is downstream of the cytomegalovirus (CMV) promoter. The resultant construct was sequenced to confirm the orientation of the insert. This construct was electroporated into ARPE-19 cells and the stably transfected cell clones were isolated in the presence of Geneticin (G418). To serve as a control, empty pcDNA3.1 vector was electroporated into ARPE-19 cells in an identical manner and the clones harboring the vector were selected by G418 resistance.
as §1
(§3) Substrate specificity of the deltorphin transport system. […] These peptides consisted of 4-13 amino acids.

[3] = tested on: deltorphin II transport system in Tat-ARPE-19 cells; assay: Inhibition of [^3H]deltorphin II uptake in Tat-ARPE-19 cells; settings: [^3H]deltorphin II 50 nM; for [^3H] Deltorphin II uptake / [^3H] Deltorphin II uptake (%) of control: Tat-ARPE-19 cells, 30 minutes, NaCl, inhibitor 1 mM; for [^3H] Deltorphin II uptake (%) of control: control = 100
From the text: as §2, §1
When the influence of Na^+ on the uptake process was investigated, the concentration of NaCl in the uptake buffer was adjusted, as desired, by isoosmotically replacing NaCl with N-methyl-D-glucamine chloride. To assess the influence of Cl^− on the uptake process, the composition of the uptake medium was modified by replacing KCl and CaCl2 with equimolar concentrations of potassium gluconate and calcium gluconate and the concentration of NaCl was adjusted, as desired, by iso-osmotically replacing NaCl with sodium gluconate. Saturation kinetics were analysed by fitting the data to the Michaelis-Menten equation. The Michaelis-Menten constant, Kt, was calculated by non-linear regression analysis and then confirmed by linear regression. Na^+- and Cl^−-activation kinetics were analyzed by fitting the data to the Hill equation and the Hill coefficients for Na^+ and Cl^− (h; the number of Na^+ and Cl^− ions involved in the activation process) and the K0.5 values (the concentration of Na^+ and Cl^−-needed for half-maximal activation) were determined from the analysis. Again, these constants were first calculated by non-linear regression methods and subsequently confirmed by linear regression methods. Experiments were repeated three times in duplicate and the results are given as means±S.E.M.
as §3
Relative affinities of endogenous opioid peptides for the transport system.

With `CC(=N)NCCCC[C@H](N)C(=O)O` [L-NIL] the “Deltorphin II uptake” value [1] was 2.40 ± 0.15 pmol/30 min/mg protein.

`O=C1CC[C@@]2(O)[C@H]3Cc4ccc(O)c5c4[C@@]2(CCN3CC2CC2)[C@H]1O5` [Naltrexone] was tested, and the “[^3H] Deltorphin II uptake” value [2] was 1.12 ± 0.02 pmol/mg protein/30 min and the “[^3H] Deltorphin II uptake (%) of control” value [2] was 104%.

`NCCCCCN` [1,5-diaminopentane] was tested, and the “Deltorphin II uptake” value [1] was 3.24 ± 0.16 pmol/30 min/mg protein.

`CCOC(=O)[C@@H](N)CCCCN` [Lys-ethyl ester, L-lysylethyl ester] was tested, and the “Deltorphin II uptake” value [1] was 0.55 ± 0.05 pmol/30 min/mg protein and the Ki [1] was 154 ± 34 µM.

For `C[C@@H](N)C(=O)O` [D-alanine], the “effect on [^3H]deltorphin II uptake (in words)” value (“effect” for short) [1] was “significant inhibition”.

In the case of `NCCCC(=O)O` [GABA], the “Deltorphin II uptake” value [1] is reported as 2.62 ± 0.13 pmol/30 min/mg protein.

In the case of `NCCCCCCN` [Hexamethylenediamine], the “Deltorphin II uptake” value [1] is reported as 2.83 ± 0.13 pmol/30 min/mg protein.

With `C=CCN1CC[C@]23c4c5ccc(O)c4O[C@H]2C(=O)CC[C@@]3(O)[C@H]1C5` [Naloxone] the “[^3H] Deltorphin II uptake” value [2] was 1.01 ± 0.00 pmol/mg protein/30 min and the “[^3H] Deltorphin II uptake (%) of control” value [2] was 94%.

With “YGGFLRR [Dynorphin A (1-7), Tyr-Gly-Gly-Phe-Leu-Arg-Arg]” the “[^3H] Deltorphin II uptake” value [2] was 0.05 ± 0.002 pmol/mg protein/30 min, the “[^3H] Deltorphin II uptake (%) of control” value [2] was 5% and the IC50 ([1]; read-out: affinity for the transport system (concentration-dependent inhibition of [^3H]deltorphin II uptake), [^3H]deltorphin II 25 nM) was 4.6 ± 1.1 µM. For the same compound, the “[^3H] Deltorphin II uptake” value [3] was 0.10 ± 0.02 pmol/mg protein/30 min and the “[^3H] Deltorphin II uptake (%) of control” value [3] was 1%.

With Glu-Gly-Phe the “effect” value [1] was “ability to stimulate the uptake”.

For `COC(=O)[C@H](CCCCN)NC(C)=O` [α-N-acetyl-L-Lys-methyl ester], the “Deltorphin II uptake” value [1] was 2.37 ± 0.20 pmol/30 min/mg protein.

With `COC(=O)[C@@H](N)CCCCN` [L-Lys-methyl ester, L-lysylmethyl ester] the “Deltorphin II uptake” value [1] was 0.28 ± 0.01 pmol/30 min/mg protein and the Ki [1] was 169 ± 9 µM.

`CC(=O)NCCCC[C@H](N)C(=O)O` [ε-N-acetyl-L-Lys] was tested, and the “Deltorphin II uptake” value [1] was 2.38 ± 0.13 pmol/30 min/mg protein.

For Gly-Gly-Gly, the “effect” value [1] was “ability to stimulate the uptake”, the “competition with deltorphin for the uptake process (in words)” value ([3]; Tat-ARPE-19 / RPE cells, compound 1 mM) was “did not compete; also recorded: significant stimulation” and the “[^3H] Deltorphin II uptake” value [3] was 9.68 ± 0.39 pmol/mg protein/30 min. For the same compound, the “[^3H] Deltorphin II uptake (%) of control” value [3] was 125%.

In the case of `NCCCCCC(=O)O` [6-amino hexanoic acid], the “Deltorphin II uptake” value [1] is reported as 2.92 ± 0.18 pmol/30 min/mg protein.

For `C[N+](C)(C)CCCC[C@H](N)C(=O)O` [Trimethyl-L-Lys], the “Deltorphin II uptake” value [1] was 2.39 ± 0.11 pmol/30 min/mg protein.

With “YGGFMRGL [[Arg^6, Gly^7, Leu^8[ Met-enkephalin]” the “[^3H] Deltorphin II uptake” value [2] was 0.04 ± 0.001 pmol/mg protein/30 min, the “[^3H] Deltorphin II uptake (%) of control” value [2] was 4% and the “[^3H] Deltorphin II uptake” value [3] was 0.09 ± 0.01 pmol/mg protein/30 min. The “[^3H] Deltorphin II uptake (%) of control” value [3] was 1%.

For `NCC(=O)CCC(=O)O` [δ-amino-levulinic acid], the “Deltorphin II uptake” value [1] was 2.68 ± 0.18 pmol/30 min/mg protein.
